Several values for one entry are separate records, joined by “and”; a condition that tells them apart may be missing. Identical values can stand only once.
What was measured:
enkephalinase = biological target: T1, enkephalinase (Rattus norvegicus, UniProt P07861); assay: Inhibitory activity against enkephalinase; type: biochemical; settings: enkephalinase from corpus striatum of rat brain; substrate methionine-enkephaline; pH 7.7; 1 hour at 37° C.
T1 construct: A preparation of enkephalinase was made by homogenizing corpus striatum of rat brain and by partial purification of the brain homogenate; from tissue; host or cells: rat brain corpus striatum, homogenized and partially purified
T1 sequence (P07861 1-750): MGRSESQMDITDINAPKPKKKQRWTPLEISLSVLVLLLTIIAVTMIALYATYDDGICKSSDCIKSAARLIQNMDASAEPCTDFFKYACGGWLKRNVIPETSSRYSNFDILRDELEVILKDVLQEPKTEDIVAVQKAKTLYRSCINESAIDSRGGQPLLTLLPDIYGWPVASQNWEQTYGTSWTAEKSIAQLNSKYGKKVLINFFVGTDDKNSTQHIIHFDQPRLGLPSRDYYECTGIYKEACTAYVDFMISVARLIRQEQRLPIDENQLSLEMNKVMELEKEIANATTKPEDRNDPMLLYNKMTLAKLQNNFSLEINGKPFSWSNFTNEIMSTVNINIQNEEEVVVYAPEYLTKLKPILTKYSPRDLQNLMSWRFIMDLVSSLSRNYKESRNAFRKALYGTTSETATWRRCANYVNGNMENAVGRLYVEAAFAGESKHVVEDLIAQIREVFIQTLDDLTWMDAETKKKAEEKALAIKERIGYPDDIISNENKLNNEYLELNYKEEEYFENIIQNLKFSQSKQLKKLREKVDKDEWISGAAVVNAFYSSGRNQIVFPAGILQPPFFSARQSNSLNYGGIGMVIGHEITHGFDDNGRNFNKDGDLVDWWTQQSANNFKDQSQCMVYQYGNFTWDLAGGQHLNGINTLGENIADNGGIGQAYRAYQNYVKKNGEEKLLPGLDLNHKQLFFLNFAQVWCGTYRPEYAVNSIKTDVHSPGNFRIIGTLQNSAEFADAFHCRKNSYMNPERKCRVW
Procedure: Inhibitory activity against enkephalinase
A preparation of enkephalinase was made by homogenizing corpus striatum of rat brain and by partial purification of the brain homogenate according to the method of Gorenstein et al (see: the "Life Science" vol. 25, 2065~2070 (1979)).
A test compound as identified in Table 1 below was dissolved in a mixture of Tris-hydrochloride buffered solution (pH 7.7) and an aqueous 1% Triton×100 (an active surfactant) to such a concentration that the added quantity of the test compound amounted to one-tenth of the volume of said mixture. To the solution of the test compound so prepared was added the enkephalinase, followed by incubation for 5 minutes at ambient temperature and the resulting mixture was admixed with methionine-enkephaline as the substrate. The reaction mixture so prepared was incubated for 1 hour at 37° C. and then subjected to a high-performance liquid chromatography in such a manner that the Tyr-Gly-Gly (a fragment of the methionine-enkephaline) formed by the enzymatic degradation of the methionine-enkephaline was isolated and the quantity of Tyr-Gly-Gly was determined by an electro-chemical detector. In this way, IC50 value of the test compound, namely, the dose of the test compound required for 50% inhibition of the enkephalinase was measured.

[1] = Effect of enhancing the analgesia by DAME, tail-flick latency method; type: in vivo, rat; settings: rats; for Enhancement in the analgesia by DAME: DAME 10 μg + test compound 30 μg relative to DAME 10 μg; for M.P.E. DAME 10 μg + Test Compound 30 μg: n = 3 - 4, **P < 0.01; for M.P.E. Test compound 30 μg: test compound 30 μg alone, n = 3 - 4
Procedure: Effect of enhancing the analgesia by [D-ala^2,met^5 ]enkephaline (abbreviated as DAME)
A known analgesic compound, DAME and the particular compound under test of this invention were administered into the brain of the test rats by puncture of cerebroventride.
Thus, the test compound was administered into the brain of the rats using a metal cannula of 400 μm in external diameter which had been inserted into the ventriculus lateralis cerebri in a brain region of 3.2 mm anterior from the bregma, 0 mm from the central line and 0.7 mm in depth, of the brain. [see "L. J. Pellegrino and A. J. Cushman; A Stereotaxic Atras of the Rat Brain. Appleton-Century-Crofts, Division of Meredith Publishing Co., New York, (1967)"]. The test for the estimation was commenced at such a time after 48 hours or more later than the end of the surgical operation when the test rats were deemed as having recovered from the damages induced by the surgical operation. Analgesia tests were conducted using the rats having been closely restrained in a wire mesh cage, according to the tail-flick latency method (see: Hachisu et al., Life Sciences, 30, 1739-1746 (1982)). Analgesic activity was evaluated in term of the value of percentage of increase in the tail-flick latency time of the test rats receiving the test compound, as compared with the control rats receiving no test compound. The power of the radiant heat source was adjusted to give a tail-flick latency value (as the control value) of about 2 seconds for the rats before the administration of the test compound.
The cut-off of 7 seconds was used in order to prevent the tail tissues from being damaged by the heat. The maximal percent effect (M.P.E) of the tail-flick latency test was calculated according to the following equation: [formula]

[2] = Analgesic activity by the acetic acid-writhing method; type: in vivo, mouse (ddy-strain); settings: mice, *P < 0.05, **P < 0.01
Procedure: Analgesic activity of test compound as estimated according to the acetic acid-writhing method
Mice of ddy-strain (body weight 20 to 25 grams) were employed as the test animal. A suspension of the compound under test was subcutaneously injected in such a manner that said suspension as injected into each mouse provides the dosage of 30 mg/kg or 300 mg/kg of the test compound. 30 Minutes after the administration, an aqueous solution of 0.6% of acetic acid was injected intraperitoneally into the mice at a volume of 0.1 ml per 10 g of the body weight. 5 Minutes after the injection of the aqueous acetic acid, the estimation was commenced to count the number of the writhing reaction of the treated mice (the motions such as abdominal constrictions and extensions of the treated mice as induced by the injection of acetic acid) which took place for the subsequent 15 minutes.
The rate (%) of suppression of the writhing reaction by the test compound was evaluated according to the following equation: [formula]

[3] = into the brain (cerebroventricle)

Question: Which IC50 (enkephalinase) does the source give for `CC(=O)SCC(=O)N[C@H](Cc1ccccc1)[C@H](O)C(=O)NCC(=O)O` [(2S,3R)-N--(AcSCH2 CO)--AHPA--Gly, N-{(2S,3R)-3-[N-(acetylthioacetyl)]amino-2-hydroxy-4-phenylbutanoyl}glycine] here?
Answer: > 300 µM

Question: For `CC(SC(=O)c1ccccc1)C(=O)N[C@H](Cc1ccccc1)[C@H](O)C(=O)O` (stereo partly drawn) [(2S,3R)-N--(BzSCH(Me)CO)--AHPA, (2S,3R)-3-[N-(2-benzoylthiopropionyl)]amino-2-hydroxy-4-phenylbutanoic acid], which IC50 (enkephalinase) is on record?
Answer: > 300 µM

Question: For `N[C@H](Cc1ccccc1)[C@H](O)C(=O)O` [(2S,3R)-AHPA, 3-amino-2-hydroxy-4-phenylbutanoic acid, reference compound], which IC50 (enkephalinase) is on record?
Answer: 14000 µM

Question: Which “M.P.E. DAME 10 μg” value ([1]; DAME 10 μg alone, into the brain (cerebroventricle), n = 3 - 4, *P < 0.05) does the source give for “[D-ala^2,met^5 ]enkephaline [DAME, reference compound]” here?
Answer: 16.2 ± 3.9% and 14.4 ± 4.2%

Question: For `O=C(CS)N[C@@H](Cc1ccccc1)[C@H](O)C(=O)O` [(2S,3S)-N--(HSCH2 CO)--AHPA, (2S,3S)-3-[N-(mercaptoacetyl)]amino-2-hydroxy-4-phenylbutanoic acid], which IC50 (enkephalinase) is on record?
Answer: 20 µM

Question: Which IC50 (enkephalinase) does the source give for `CC(=O)SCC(=O)N[C@H](Cc1ccccc1)[C@H](O)C(=O)N[C@@H](CC(C)C)C(=O)O` [(2S,3R)-N--(AcSCH2CO)--AHPA--L-Leu, N-{(2S,3R)-3-[N-(acetylthioacetyl)]amino-2-hydroxy-4-phenylbutanoyl}-L-leucine] here?
Answer: > 300 µM

Question: Which results are given for `N[C@@H](CS)C(=O)N[C@H](Cc1ccccc1)[C@H](O)C(=O)O` [(2S,3R)-N--(L-Cys)--AHPA, (2S,3R)-3-(N-L-Cysteinyl)amino-2-hydroxy-4-phenylbutanoic acid]?
Answer: Rate of suppression (%) (average value ± S.E.) ([2]; 30 mg/kg subcutaneous): 56.5 ± 9.9%; Rate of suppression (%) (average value ± S.E.) ([2]; 300 mg/kg subcutaneous): 47.9 ± 11.9%; IC50 (enkephalinase): 40 µM; Enhancement in the analgesia by DAME [1]: 604.2; M.P.E. DAME 10 μg + Test Compound 30 μg [1, 3]: 87.0 ± 13.0%; M.P.E. Test compound 30 μg [1, 3]: 10.0 ± 5.2%

Question: With `O=C(CS)N[C@H](Cc1ccccc1)[C@H](O)C(=O)O` [(2S,3R)-N--(HSCH2 CO)--AHPA, (2S,3R)-3-[N-(mercaptoacetyl)]amino-2-hydroxy-4-phenylbutanoic acid] as the molecule, how does the “Rate of suppression (%) (average value ± S.E.)” value (“Rate of suppression (%)” for short) ([2]; 30 mg/kg subcutaneous) read?
Answer: 12.5 ± 14.7%

Question: And the “Rate of suppression (%)” value ([2]; 300 mg/kg subcutaneous)?
Answer: 36.5 ± 10.5%

Question: And the IC50 (enkephalinase)?
Answer: 3 µM

Question: For `CC(=O)SCC(=O)N[C@@H](Cc1ccccc1)[C@H](O)C(=O)O` [(2S,3S)-N--(AcSCH2 CO)--AHPA, (2S,3S)-3-[N-(acetylthioacetyl)]amino-2-hydroxy-4-phenylbutanoic acid], which IC50 (enkephalinase) is on record?
Answer: 300 µM

Question: Which “Rate of suppression (%)” value ([2]; 30 mg/kg subcutaneous) does the source give for `CC(=O)SCC(=O)N[C@H](Cc1ccccc1)[C@H](O)C(=O)O` [(2S,3R)-N--(AcSCH2 CO)--AHPA, (2S,3R)-3-[N-(acetylthioacetyl)]amino-2-hydroxy-4-phenylbutanoic acid] here?
Answer: 33.7 ± 13.5%

Question: And the “Rate of suppression (%)” value ([2]; 300 mg/kg subcutaneous)?
Answer: 33.3 ± 13.4%

Question: And the IC50 (enkephalinase)?
Answer: 50 µM

Question: What about the “Enhancement in the analgesia by DAME” value [1] of the same molecule?
Answer: 617.2

Question: And the “M.P.E. DAME 10 μg + Test Compound 30 μg” value [1, 3]?
Answer: 100 ± 0%

Question: And the “M.P.E. Test compound 30 μg” value [1, 3]?
Answer: 13.1 ± 6.0%

Question: With `O=C(CCSC(=O)c1ccccc1)N[C@H](Cc1ccccc1)[C@H](O)C(=O)O` [(2S,3R)-N--(BzSCH2 CH2 CO)--AHPA, (2S,3R)-3-[N-(3-benzoylthiopropionyl)]amino-2-hydroxy-4-phenylbutanoic acid] as the molecule, how does the IC50 (enkephalinase) read?
Answer: > 300 µM

Source: US4719231A, “3-[N-(mercaptoacyl)]amino-4-arylbutanoic acid derivatives and an analgesic agent comprising the same” (Zaidan Hojin Biseibutsu Kagaku Kenkyu Kai, priority 1984, dated 1988)
